Measurements published in patent US20020068367A1, “Linker and method for solid phase combinatorial synthesis” (priority 2000, published 2002).
Several values for one entry are separate records, joined by “and”; a condition that tells them apart may be missing. Equal entries are not always repeated.

Biological target: T1, fluorescein-streptavidin (Streptomyces avidinii, UniProt P22629)
T1 construct: purchased Calbiochem-Novabiochem Corp., La Jolla, Calif; 189734
Test: Standard protein-binding assay: fluorescein-streptavidin binding to linker on streptavidin-coated 96-well plates
Excerpt: Referring to the drawings, and particularly to FIG. 1, generic reactions illustrating two variations of the screening system of the present invention are shown. FIGS. 1a-1d illustrate the generic System 1 reaction wherein a compound comprised of a tether connecting biotin with a chemical compound containing a nitrophenyl group is applied to a streptavidin coated solid phase. The amount of fluorescein-protein complex (c), where the exemplary protein is fluorescein-anti-DNP antibody, bound to the biotin-tether-nitrophenyl complex is characterized by detecting the magnitude of fluorescence emission in each individual well at the completion of the reaction. Similarly, FIG. 1e-1h illustrates the generic System 2 reaction wherein a tether connects 2 biotin groups together and streptavidin is coated on the solid phase. As in the System 1 reaction, the amount of fluorescein-protein complex (g), where the exemplary protein is fluorescein-streptavidin, bound to the biotin-tether-biotin complex is characterized through the detection of fluorescence emissions in each individual well at the completion of the reaction.
In the quantification of the interaction between fluoresceinated-proteins and linkers is characterized by detecting the magnitude of fluorescence emissions in each individual well at the completion of standard protein-binding assay procedures.
A standard protein-binding assay comprises a multi-step process in which strepeavidin pre-treated 96-well plates are exposed to a solution containing linker followed by exposure to a solution containing fluorescein-labeled protein. The 96-well plates are coated with a commercially available streptavidin solution (cat #BPS00100; Xenopore Corp., Hawthorne, N.J.) and then pre-incubated with 300 μl PBS buffer for 10 minutes at room temperature. To complete the pre-incubation process, the PBS buffer is discarded and the plates are further washed five times with water. Once the plate is sufficiently washed, add to the wells 100 μl of pre-mixed binding buffer containing the desired linker, the preparation of which is as described above. After addition of the linker solution, the plate is incubated at 37° C. for one hour. Upon completion of incubation, the linker solution is discarded and the plate is washed with five changes of water. For the fifth step of the assay process, 100 μl of a premixed reaction solution containing 1 M Tris, 0.5 M NaCl and the fluorescein-labeled proteins are added to selected wells of the plate with bound linker. The fluorescein conjugated proteins, anti-dinitrophenyl antibody (rabbit IgG fraction, cat #A-6423) (anti-DNP) and streptavidin (cat #189734) are commercially available from Molecular Probes, Inc., Eugene, Oreg. and Calbiochem Inc., San Diego, Calif. Upon addition of the protein solutions, the plate is further incubated at 37° C. for one hour. Following the incubation period, the reacting solution in each well is discarded and the wells are washed with five changes of 1 M Tris or 30 changes of water. After this final washing step, 250 μl of elution buffer containing 0.5 mM NaOH, methanol and 20 mM EDTA is added to each well and the plate is read using a Spectra MAX Gemini fluorescein plate reader (Molecular Devices Corp., Sunnyvale, Calif.).
Using the standard protein-binding assay described above, linkers 1-7 are evaluated for their ability to bind fluorescein-streptavidin or fluorescein-anti-DNP. The detection of fluorescence emission beyond that of the control would indicate that the fluorescein labeled protein has bound to the corresponding linker. Lack of fluorescence emission would indicate that either the linker or the fluorescein-bound proteins are absent, or that an improper linker was used. This may be interpreted as meaning that the protein of interest, in this exemplary example streptavidin or anti-DNP, “recognizes” the particular library compound being used in the experiment. […]

[1] = Table 5, linker 3 50 nmol, streptavidin-fluorescein 100 pmol
[2] = [Linker] 3 2.5 nmol, fluorescein-streptavidin 100 pmol
[3] = [Linker] 3 5.0 nmol, fluorescein-streptavidin 100 pmol
[4] = [Linker] 3 25.0 nmol, fluorescein-streptavidin 100 pmol
[5] = [Linker] 3 50.0 nmol, fluorescein-streptavidin 100 pmol
[6] = [Linker] 3 250.0 nmol, fluorescein-streptavidin 100 pmol
[7] = [Linker] 3 500.0 nmol, fluorescein-streptavidin 100 pmol
[8] = [Linker] 3 2500.0 nmol, fluorescein-streptavidin 100 pmol
[9] = [Linker] 3 5000.0 nmol, fluorescein-streptavidin 100 pmol
[10] = linker 3 50 nmol, [STREP] 0 pmol (linker only)
[11] = linker 3 50 nmol, [STREP] 0.15 pmol
[12] = linker 3 50 nmol, [STREP] 0.3 pmol
[13] = linker 3 50 nmol, [STREP] 1.0 pmol
[14] = linker 3 50 nmol, [STREP] 3.0 pmol
[15] = linker 3 50 nmol, [STREP] 15.0 pmol
[16] = linker 3 50 nmol, [STREP] 30.0 pmol
[17] = linker 3 50 nmol, [STREP] 45.0 pmol
[18] = linker 3 50 nmol, [STREP] 60.0 pmol

T1 sequence (P22629 25-183): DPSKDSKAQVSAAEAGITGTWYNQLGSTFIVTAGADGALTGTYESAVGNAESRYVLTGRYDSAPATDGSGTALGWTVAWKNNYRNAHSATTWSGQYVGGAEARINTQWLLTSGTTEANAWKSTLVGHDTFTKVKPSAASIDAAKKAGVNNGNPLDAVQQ

O=C(CCCCCNC(=O)CCCCCNC(=O)CCCCC1SCC2NC(=O)NC21)NCCCCCNC(=O)CCCCCNC(=O)CCCCC1SCC2NC(=O)NC21 (stereo not drawn) [Linker 3]
Increase in fluorescence emission (100-fold increase in linker 3 concentration (0.5 nmol to 50 nmol)): no significant increase | Increase in fluorescence emission (100-fold increase in linker concentration at much higher concentrations of linker 3): 2 fold | Fluorescence emission, mean of Columns 1-3 [1]: 479.29 | Fluorescence emission, sum of Columns 1-2 [1]: 987.05 | Fluorescence emission, sum of Columns 1-3 [1]: 1437.9 | Fluorescence emission (Table 5, linker 3 50 nmol, streptavidin-fluorescein 100 pmol, replicates): 492.22 and 494.83 and 450.81 | Detected fluorescence emission (Well #1, linker 3 50 nmol, streptavidin-fluorescein 100 pmol): about 500 | Fluorescence emission, mean of Columns 1-3 [2]: 181.30 | Fluorescence emission, sum of Columns 1-2 [2]: 406.14 | Fluorescence emission, sum of Columns 1-3 [2]: 543.91 | Fluorescence emission ([Linker] 3 2.5 nmol, fluorescein-streptavidin 100 pmol, replicates): 230.68 and 175.46 and 137.77 | Fluorescence emission, mean of Columns 1-3 [3]: 193.80 | Fluorescence emission, sum of Columns 1-2 [3]: 467.1 | Fluorescence emission, sum of Columns 1-3 [3]: 581.41 | Fluorescence emission ([Linker] 3 5.0 nmol, fluorescein-streptavidin 100 pmol, replicates): 239.14 and 227.96 and 114.31 | Fluorescence emission, mean of Columns 1-3 [4]: 211.91 | Fluorescence emission, sum of Columns 1-2 [4]: 469.52 | Fluorescence emission, sum of Columns 1-3 [4]: 635.73 | Fluorescence emission ([Linker] 3 25.0 nmol, fluorescein-streptavidin 100 pmol, replicates): 223.84 and 245.68 and 166.21 | Fluorescence emission, mean of Columns 1-3 [5]: 280.99 | Fluorescence emission, sum of Columns 1-2 [5]: 502.51 | Fluorescence emission, sum of Columns 1-3 [5]: 782.96 | Fluorescence emission ([Linker] 3 50.0 nmol, fluorescein-streptavidin 100 pmol, replicates): 226.70 and 275.81 and 280.45 | Fluorescence emission, mean of Columns 1-3 [6]: 313.49 | Fluorescence emission, sum of Columns 1-2 [6]: 597.65 | Fluorescence emission, sum of Columns 1-3 [6]: 940.47 | Fluorescence emission ([Linker] 3 250.0 nmol, fluorescein-streptavidin 100 pmol, replicates): 261.21 and 336.44 and 342.82 | Fluorescence emission, mean of Columns 1-3 [7]: 352.86 | Fluorescence emission, sum of Columns 1-2 [7]: 703.68 | Fluorescence emission, sum of Columns 1-3 [7]: 1058.6 | Fluorescence emission ([Linker] 3 500.0 nmol, fluorescein-streptavidin 100 pmol, replicates): 325.94 and 377.74 and 354.91 | Fluorescence emission, mean of Columns 1-3 [8]: 457.81 | Fluorescence emission, sum of Columns 1-2 [8]: 920.68 | Fluorescence emission, sum of Columns 1-3 [8]: 1373.4 | Fluorescence emission ([Linker] 3 2500.0 nmol, fluorescein-streptavidin 100 pmol, replicates): 474.19 and 446.49 and 452.76 | Fluorescence emission, mean of Columns 1-3 [9]: 440.22 | Fluorescence emission, sum of Columns 1-2 [9]: 883.57 | Fluorescence emission, sum of Columns 1-3 [9]: 1320.7 | Fluorescence emission ([Linker] 3 5000.0 nmol, fluorescein-streptavidin 100 pmol, replicates): 447.77 and 435.80 and 437.09 | Effect on binding capacity of fluorescein-streptavidin (generic System 2): significantly enhances the binding capacity | Fluorescence emission (linker 3 0.5 nmol, fluorescein-streptavidin 100 pmol): 239.14 | Fluorescence emission, mean of Columns 1-3 [10]: 150.00 and 142.49 | Fluorescence emission, sum of Columns 1-2 [10]: 311.12 and 280.3 | Fluorescence emission, sum of Columns 1-3 [10]: 450.01 and 427.46 | Fluorescence emission (linker 3 50 nmol, [STREP] 0 pmol (linker only), replicates): 158.28 and 152.84 and 138.89 and 156.28 and 124.02 and 147.16 | Fluorescence emission, mean of Columns 1-3 [11]: 147.68 | Fluorescence emission, sum of Columns 1-2 [11]: 276.44 | Fluorescence emission, sum of Columns 1-3 [11]: 443.03 | Fluorescence emission (linker 3 50 nmol, [STREP] 0.15 pmol, replicates): 110.75 and 110.57 and 165.87 and 166.59 | Fluorescence emission, mean of Columns 1-3 [12]: 129.73 | Fluorescence emission, sum of Columns 1-2 [12]: 226.97 | Fluorescence emission, sum of Columns 1-3 [12]: 389.19 | Fluorescence emission (linker 3 50 nmol, [STREP] 0.3 pmol, replicates): 72.275 and 154.69 and 162.22 | Fluorescence emission, mean of Columns 1-3 [13]: 197.16 | Fluorescence emission, sum of Columns 1-2 [13]: 389.28 | Fluorescence emission, sum of Columns 1-3 [13]: 591.47 | Fluorescence emission (linker 3 50 nmol, [STREP] 1.0 pmol, replicates): 167.36 and 221.92 and 202.19 | Fluorescence emission, mean of Columns 1-3 [14]: 253.59 | Fluorescence emission, sum of Columns 1-2 [14]: 542.04 | Fluorescence emission, sum of Columns 1-3 [14]: 760.78 | Fluorescence emission (linker 3 50 nmol, [STREP] 3.0 pmol, replicates): 237.61 and 304.43 and 218.74 | Fluorescence emission, mean of Columns 1-3 [15]: 257.02 | Fluorescence emission, sum of Columns 1-2 [15]: 482.28 | Fluorescence emission, sum of Columns 1-3 [15]: 771.07 | Fluorescence emission (linker 3 50 nmol, [STREP] 15.0 pmol, replicates): 220.15 and 262.13 and 288.79 | Fluorescence emission, mean of Columns 1-3 [16]: 326.19 | Fluorescence emission, sum of Columns 1-2 [16]: 601.80 | Fluorescence emission, sum of Columns 1-3 [16]: 978.58 | Fluorescence emission (linker 3 50 nmol, [STREP] 30.0 pmol, replicates): 395.67 and 206.13 and 376.78 | Fluorescence emission, mean of Columns 1-3 [17]: 474.38 | Fluorescence emission, sum of Columns 1-2 [17]: 994.49 | Fluorescence emission, sum of Columns 1-3 [17]: 1423.2 | Fluorescence emission (linker 3 50 nmol, [STREP] 45.0 pmol, replicates): 454.46 and 540.03 and 428.66 | Fluorescence emission, mean of Columns 1-3 [18]: 463.43 | Fluorescence emission, sum of Columns 1-2 [18]: 959.13 | Fluorescence emission, sum of Columns 1-3 [18]: 1390.3 | Fluorescence emission (linker 3 50 nmol, [STREP] 60.0 pmol, replicates): 548.75 and 410.38 and 431.15 | Increase in fluorescence emission (linker 3, 100-fold increase in fluorescein-streptavidin concentration (0.15 to 15 pm)): 2 fold
